Consider five molecules from EP0479121A1, “Skin treatment compositions containing beta-phosphatidyl choline derivatives” (FIDIA S.p.A., priority 1990, dated 1992).

One data set relates to stratum corneum. The data set is described as follows: In vivo hydration tests on human volunteers, Corneometer (Test 3). As to conditions: 50 mg cream on volar forearm (20 cm²), average of 10 subjects, lower numbers = higher hydration, before application 241±21; for Measured hydration values, 30': 30 min after application; for Measured hydration values, 150': 150 min after application; for Measured hydration values, 270': 270 min after application. The method, then: The hydration tests were conducted using a Corneometer laboratory instrument equipped with a capacitive probe able to measure the moisture present on the stratum corneum. To conduct the test, 50 mg of standard cream and cream containing the various synthetic β-lecithins prepared as Examples 1 and 2 are applied to the volar surface of the forearm (20 cm² ) with light circular massage.
The hydration measurements were taken before applying the product and 30 min, 150 min and 270 min after its application. The hydration values are expressed in arbitrary units deriving from electrical impedance measurements on the cutaneous surface. Although the values are relative they are in inverse linear relationship to the absolute water quantity present in the cutaneous layer of the skin (lower numbers correspond to higher hydration).

A short description of data set [1]: Emulsion stability under centrifuging at 6000 r.p.m. (Test 2). In kind it is physicochemical. As to conditions: 250 mg in 10 g water added to 90 g standard emulsion, phase separation noted. The method, then:
To evaluate the influence of β-phosphatidyl choline derivatives on emulsion stability, a standard emulsion was prepared having the following composition (Table 2):
The aqueous phase heated to 70°C is slowly added to the oil phase heated to 75°C. Rapid agitation is effected by a Silverson laboratory mixer equipped with an emulsifying head and is continued for about 30 minutes, slowly cooling the formed emulsion to ambient temperature.
250 mg of each of the considered β-lecithins dispersed or dissolved in 10 g of water are added under slow agitation to 90 g of the standard emulsion obtained.
The resultant emulsions are tested for stability by subjecting them to centrifuging at 6000 r.p.m. for 10, 30 and 60 minutes respectively, and by storing them under temperature control at 45°C for 72 hours. In both cases the stability is evaluated by noting any phase separation.

`CC(C)(C)C(=O)OCC(COC(=O)C(C)(C)C)OP(=O)([O-])OCC[N+](C)(C)C` [PCS3, 1,3-dipivaloylglycero-2-phosphoryl choline]: in the data set with stratum corneum, the “Measured hydration values, 30'” value was found to be 157±7 arbitrary units; the “Measured hydration values, 150'” value worked out at 193±13 arbitrary units; the “Measured hydration values, 270'” value was found to be 206±9 arbitrary units.

Turning to `CCCCCCCCCCCCCCCCCC(=O)OCC(COC(=O)CCCCCCCCCCCCCCCCC)OP(=O)([O-])OCC[N+](C)(C)C` [PCS4, 1,3-distearoylglycero-2-phosphoryl choline], in the data set on stratum corneum, the “Measured hydration values, 30'” value stood at 132±12 arbitrary units; the “Measured hydration values, 150'” value is 161±11 arbitrary units; the “Measured hydration values, 270'” value was 180±12 arbitrary units.

As for `COc1cc(C(=O)OCC(COC(=O)c2cc(OC)c(OC)c(OC)c2)OP(=O)([O-])OCC[N+](C)(C)C)cc(OC)c1OC` [PCS5, 1,3-di(3,4,5-trimethoxybenzoyl)glycero-2-phosphoryl choline], in the data set with stratum corneum, the “Measured hydration values, 30'” value is 124±14 arbitrary units; the “Measured hydration values, 150'” value is given as 144±16 arbitrary units; the “Measured hydration values, 270'” value was determined as 177±15 arbitrary units.

Consider `CCCCCCCCCCCCCCCC(=O)OCC(COC(=O)CCCCCCCCCCCCCCC)OP(=O)([O-])OCC[N+](C)(C)C` [PCS1, 1,3-dipalmitoylglycero-2-phosphoryl choline], for which, in data set [1] (10 min), the “Stability under centrifuging at 6000 r.p.m., 10 min” value is listed as “Stable”. In addition, in data set [1] (30 min), the “Stability under centrifuging at 6000 r.p.m., 30 min” value is listed as “Stable”. Besides, the “Stability under centrifuging at 6000 r.p.m., 60 min” value in data set [1] (60 min) is on record as “Stable”. In the data set on stratum corneum, the “Measured hydration values, 30'” value was 165±10 arbitrary units; the “Measured hydration values, 150'” value stood at 195±15 arbitrary units; the “Measured hydration values, 270'” value is 213±15 arbitrary units.

As to `CCCCCCCCCCCCCC(=O)OCC(COC(=O)CCCCCCCCCCCCC)OP(=O)([O-])OCC[N+](C)(C)C` [PCS2, 1,3-dimyristoylglycero-2-phosphoryl choline], in the data set on stratum corneum, the “Measured hydration values, 30'” value came out at 147±11 arbitrary units; the “Measured hydration values, 150'” value came out at 175±10 arbitrary units; the “Measured hydration values, 270'” value came to 195±9 arbitrary units.
